How the values were obtained:
[1] = system: streptococcal strain D471 adherence to Detroit 562 pharyngeal cells; type: cell-based, S. pyogenes
[2] = system: strain JRS75 adherence to Detroit 562 pharyngeal cells; assay: Pharyngeal cell adherence assay with isogenic M-negative mutant; type: cell-based, S. pyogenes; details: bacteria preincubated with sialic acid
Experimental: Pharyngeal cell adherence and invasion assay. Streptococcal adherence to and invasion of the human pharyngeal cell line, Detroit 562, was assayed by modification of a procedure described previously (Talbot, U. M., et al., Infect. Immun. 64:3772-3777, 1996). Overnight cultures of streptococci were pelleted by centrifugation and washed twice in sterile PBS. The cultures were resuspended in MEM and diluted to a final concentration of 5×10^7 CFU/ml, and 1 ml aliquots were inoculated into each well containing washed Detroit cell monolayers. At least 3 wells were used for each bacterial strain or culture condition. Following a 3 h incubation period with the bacteria at 37° C., the monolayers were washed three times in PBS.
For the bacterial invasion assay, 1 ml of MEM supplemented with penicillin (10 μg/ml) and gentamicin (200 μg/ml) was added to each well (to kill extracellular bacteria) and incubated for 1 h at 37° C. […] The total number of adherent streptococci was calculated as the difference between the total number of adherent and invasive bacteria and the number of invasive bacteria alone.
Effect of monosaccharides on streptococcal adherence to pharyngeal cells. The effect of various monosaccharides on streptococcal adherence to pharyngeal cell monolayers was assessed in inhibition assays. […]

Molecule: CC(=O)N[C@H]1[C@H]([C@H](O)[C@H](O)CO)O[C@@](O[C@H]2[C@@H](O)[C@@H](CO)O[C@@H](O[C@H]3[C@H](O)[C@@H](O)C(O)O[C@@H]3CO)[C@@H]2O)(C(=O)O)C[C@@H]1O (stereo partly drawn) [3′SL, NeuAcα2-3Galβ1-4Glc]
- effect on adherence of strain D471 to cultured pharyngeal cells [1]: no significant effect

Molecule: CC(=O)NC1C(O)CC(OCC2OC(OC3C(CO)OC(O)C(O)C3O)C(O)C(O)C2O)(C(=O)O)OC1C(O)C(O)CO (stereo not drawn) [6′SL, NeuACα2-6Galβ1-4Glc]
- reduced binding of strain D471 to pharyngeal cells [1]: approximately 85%

Molecule: CC(=O)N[C@H]1[C@H]([C@H](O)[C@H](O)CO)OC(O)(C(=O)O)C[C@@H]1O (stereo partly drawn) [sialic acid, N-acetylneuraminic acid]
- effect on adherence of JRS75 (M-negative mutant) to pharyngeal cells [2]: not affected
- effect on adherence of strain D471 to pharyngeal cells [1]: significantly decreased

Molecule: transferrin: sialylated glycoprotein whose oligosaccharides terminate only in α2-6 linked sialic acid
- reduced adherence of strain D471 to cultured pharyngeal cells [1]: approximately 90%

B1: Fetuin: sialylated glycoprotein containing both α2-3 and α2-6 sialic acid linkages (protein, UniProt P12763 19-359, looked up)
Alpha-2-HS-glycoprotein: IPLDPVAGYKEPACDDPDTEQAALAAVDYINKHLPRGYKHTLNQIDSVKVWPRRPTGEVYDIEIDTLETTCHVLDPTPLANCSVRQQTQHAVEGDCDIHVLKQDGQFSVLFTKCDSSPDSAEDVRKLCPDCPLLAPLNDSRVVHAVEVALATFNAESNGSYLQLVEISRAQFVPLPVSVSVEFAVAATDCIAKEVVDPTKCNLLAEKQYGFCKGSVIQKALGGEDVRVTCTLFQTQPVIPQPQPDGAEAEAPSAVPDAAGPTPSAAGPPVASVVVGPSVVAVPLPLHRAHYDLRHTFSGVASVESSSGEAFHVGKTPIVGQPSIPGGPVRLCPGRIRYFKI
- decrease of adherence of strain D471 to pharyngeal cells [1]: approximately 30%
